Patent publication US20040214785A1, “Surface sanitizing compositions with improved antimicrobial performance” (priority 2003, published 2004)
Converted amounts (≈) assume the structure as drawn.

What was measured:
S. aureus = conditions: against S. aureus; Johnson et al. 2002; cited from earlier work
[1] = topically-applied; cited from earlier work
[2] = cited from earlier work
bacteria = conditions: MMWR/RR-16; cited from earlier work
E. coli = conditions: against E. coli; Johnson et al. 2002; cited from earlier work
[3] = test system: methicillin-resistant Staphylococcus aureus (MRSA); assay: Bactericidal assay (MBC), subculture of dilutions on TSB agar; type: cell-based; conditions: challenge with 1×10^4 MRSA
Description: S. aureus maintained as a frozen culture with 10% (v/v) glycerol at −80° C. was thawed and then propagated on trypticase soy broth (TSB) or agar plates at room temperature (R.T.); determinations for Most Probable Number (MPN) in given samples were performed at 37° C., using standard assay techniques.
Tested sanitizers comprised commercially available gel products (i.e., “Brand A” and “Brand B”) from two manufacturers; these gels were comprised substantially of ethanol (60-70% w/w). […] Additional prototype liquid preparations (“Brand C1” and “Brand C2”) were substantially comprised of mixtures of alcohol (60-70% ethanol or isopropanol, w/w) combined with triclosan (approximately 0.04% w/w). Finally, triclosan was added to certain of the commercially available products (Brand B) to yield modified products containing triclosan at a level of approximately 0.04% w/w (“Brand B1”).
Killing of bacteria at each dilution (i.e., minimum bactericidal concentration, MBC) was determined by removing 5 μL aliquots and subculturing these on the surface of a TSB agar plate. Plates were incubated overnight at 37° C. and observed for growth. Studies were performed at 30 sec, at 5, 10, and 30 min, and at 1, 2, 4, and 8 hours after adding the challenge bacteria.

[4] = test system: bacterial counts on hands; conditions: Triclosan (0.1%), after a 1-minute hygienic handwash; cited from earlier work

SMILES: Oc1cc(Cl)ccc1Oc1ccc(Cl)cc1Cl [Triclosan, 2,4,4′-trichloro-2′-hydroxy-diphenyl ether]
- MBC (S. aureus): 7.5 µg/mL (≈ 25.9 µM)
- penetration into human skin [1]: minimal penetration into human skin
- solubility in water [2]: substantially insoluble in water
- minimum bactericidal concentrations (bacteria): 25 to 500 µg/mL
- MBC (E. coli): 1.3 µg/mL (≈ 4.49 µM)
- dilution at which preparation is still bactericidal [3]: ≤ 10 fold
- reduction of bacterial counts on hands [4]: 2.8 log10
